Earlier results on 6 compounds are cited in US20230330298A1 (priority 2022, published 2023).

Data set [1] has as its system Clostridium botulinum spores.

Regarding `O=CC=Cc1ccccc1` [Cinnamaldehyde], in data set [1], the “Sporicidal Minimal Inhibitory Concentration” value is above 2500 mM and the “Sporostatic Minimal Inhibitory Concentration” value was 9.8 mM.

As to `O=Cc1ccc2c(c1)OCO2` [Piperonal], in data set [1], the “Sporicidal Minimal Inhibitory Concentration” value is given as above 2500 mM and the “Sporostatic Minimal Inhibitory Concentration” value is on record as 0.6 mM.

As to `CCCCCCCCCCCC(=O)OCC(O)CO` (stereo not shown) [Monolaurin], in the data set on bacterial spores, the “Sporicidal effect (in words)” value is “kill bacterial spores”.

Take `COc1cc(C=O)ccc1O` [Vanillin]: in data set [1], the “Sporicidal Minimal Inhibitory Concentration” value is reported as 125 mM and the “Sporostatic Minimal Inhibitory Concentration” value is listed as 0.6 mM.

With `O=Cc1ccccc1` [Benzaldehyde], in data set [1], the “Sporicidal Minimal Inhibitory Concentration” value is recorded as 625 mM and the “Sporostatic Minimal Inhibitory Concentration” value is reported as 0.6 mM.

Turning to `CCCCCCCCCCCCCCCCCC(=O)OCC(O)CO` (stereo not shown) [glycerol monostearate], in the data set with bacterial spores, the “Sporicidal effect (in words)” value is “kill bacterial spores”.
